Read-outs that look alike come from different tables or passages of the source.
Tests used:
[1] = rat, in vivo
[2] = Capsule administration to small intestine of non-anesthetized pigs (Nipple Valve gastric bypass); conditions: pig, in vivo; read-out: level of bioavailability in pigs, extrapolated from rat results
Excerpt: In order to test the activity of the formulations of the invention when administrated in capsules, an animal model allowing capsule administration to pigs (domestic swine) was established. In order to bypass the stomach and allow direct administration of capsules to the small intestine of the pig, a well established model in dogs (“Nipple Valve model”; Wilsson-Rahmberg & O. Jonsson, Laboratory Animals (1997), 31, 231-240) was adapted to the commercial pig.
The two octreotide formulations shown below in Table 37 were prepared. The octreotide (x) formulation was prepared essentially as described above for the basic formulation wherein the hydrophilic fraction has been simplified to omit MgCl2 and MC400. […] The capsules were not enteric-coated i.e. they were uncoated.
The formulations described above in Table 37 were administered directly to the small intestine of the non-anesthetized pigs via the gastric bypass described above, and plasma octreotide levels were measured post-administration. Exposure values, AUC were determined for the formulations. The % BA was calculated compared to the exposure to octreotide after subcutaneous administration.

[3] = Intra-jejunal administration to non-anesthetized cannulated rats: plasma cargo levels, AUC, bioavailability; conditions: rat
[4] = rat, in vivo; remark: listed apart in the source
[5] = rat, in vivo; remark: listed apart in the source
blood glucose = test: Blood glucose after rectal administration of insulin to rats; type: in vivo; conditions: rat, insulin 328 μg/rat
Excerpt: The data of FIG. 3 is presented as MEAN±SD, n=5.

For `CCNC(=O)[C@@H]1CCCN1C(=O)[C@H](CCCNC(=N)N)NC(=O)[C@H](CC(C)C)NC(=O)[C@@H](CC(C)C)NC(=O)[C@H](Cc1ccc(O)cc1)NC(=O)[C@H](CO)NC(=O)[C@H](Cc1c[nH]c2ccccc12)NC(=O)[C@H](Cc1c[nH]cn1)NC(=O)[C@@H]1CCC(=O)N1` [leuprolide in PBS, leuprolide], the “bioavailability / penetration to the bloodstream” value (shortened to “bioavailability / penetration”) [1] was “negligible penetration to the bloodstream”.

Work on `C[C@@H](O)[C@@H]1NC(=O)[C@H](CCCCN)NC(=O)[C@@H](Cc2c[nH]c3ccccc23)NC(=O)[C@H](Cc2ccccc2)NC(=O)[C@@H](NC(=O)[C@H](N)Cc2ccccc2)CSSC[C@@H](C(=O)N[C@H](CO)[C@@H](C)O)NC1=O` [octreotide] yielded a bioavailability [2] of roughly 0.1%.

With `CC[C@H](C)[C@H](NC(=O)[C@H](CCC(=O)O)NC(=O)[C@H](CO)NC(=O)[C@@H](NC(=O)[C@@H](N)CO)C(C)C)C(=O)N[C@@H](CCC(N)=O)C(=O)N[C@@H](CC(C)C)C(=O)N[C@@H](CCSC)C(=O)N[C@@H](Cc1cnc[nH]1)C(=O)N[C@@H](CC(N)=O)C(=O)N[C@@H](CC(C)C)C(=O)NCC(=O)N[C@@H](CCCCN)C(=O)N[C@@H](Cc1cnc[nH]1)C(=O)N[C@@H](CC(C)C)C(=O)N[C@@H](CC(N)=O)C(=O)N[C@@H](CO)C(=O)N[C@@H](CCSC)C(=O)N[C@@H](CCC(=O)O)C(=O)N[C@@H](CCCN=C(N)N)C(=O)N[C@H](C(=O)N[C@@H](CCC(=O)O)C(=O)N[C@@H](Cc1c[nH]c2ccccc12)C(=O)N[C@@H](CC(C)C)C(=O)N[C@@H](CCCN=C(N)N)C(=O)N[C@@H](CCCCN)C(=O)N[C@@H](CCCCN)C(=O)N[C@@H](CC(C)C)C(=O)N[C@@H](CCC(N)=O)C(=O)N[C@@H](CC(=O)O)C(=O)N[C@H](C(=O)N[C@@H](Cc1cnc[nH]1)C(=O)N[C@@H](CC(N)=O)C(=O)N[C@@H](Cc1ccccc1)C(=O)O)C(C)C)C(C)C` [teriparatide in saline, teriparatide] the “bioavailability / penetration” value [1] was “no penetration to the bloodstream”.

For `CN[C@H](CC(C)C)C(=O)N[C@H]1C(=O)N[C@@H](CC(N)=O)C(=O)N[C@H]2C(=O)N[C@H]3C(=O)N[C@H](C(=O)N[C@H](C(=O)O)c4cc(O)cc(O)c4-c4cc3ccc4O)[C@H](O)c3ccc(c(Cl)c3)Oc3cc2cc(c3O[C@@H]2O[C@H](CO)[C@@H](O)[C@H](O)[C@H]2O[C@H]2C[C@](C)(N)[C@H](O)[C@H](C)O2)Oc2ccc(cc2Cl)[C@H]1O` [vancomycin in saline solution, vancomycin], the “bioavailability / penetration” value [3] was “no BA was detected”.

With “hGH in PBS: human growth hormone in PBS, control” the “penetration to the bloodstream” value [4] was “no penetration to the bloodstream”.

For “insulin control: unformulated insulin control given intra-jejunally”, the “insulin absorbance” value [5] was “minimal insulin absorbance”.

With “insulin in PBS: human insulin solubilized in PBS” the “glucose reduction” value (blood glucose) was “only a very slight glucose reduction”.

Reference: patent US11986529B2, “Pharmaceutical compositions and related methods of delivery” (priority 2008, dated 2024)
